Measured values from the supplement of paper PMC8612539.
≈ marks a conversion by molar mass, not a printed value.

Tested on: Pasteurella multocida
Assay: minimum inhibitory concentration (MIC)
Description: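 Broth microdilution MIC (Sensititre BOPO7F bovine plate, CLSI methods) of 19 antimicrobials against field isolates of P. multocida, M. haemolytica, H. somni (deep nasopharyngeal swabs) and E. coli, Enterococcus spp. (rectal swabs) from weaned dairy heifers. Incubation 16-24 h at 35 C. MIC is the lowest concentration preventing visible growth. Values with <= or > lie at the tested range limits. Trimethoprim-sulfamethoxazole is given as the trimethoprim component of a 1:19 mixture.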

CN1C[C@@H]2C[C@H]1CN2c1cc2c(cc1F)c(=O)c(C(=O)O)cn2C1CC1 [Danofloxacin]
Settings | minimum inhibitory concentration [µg/mL]
isolate (source animal id): 10 | > 1
isolate (source animal id): 11 | 1 (≈ 2.8 µM)
isolate (source animal id): 12 | > 1
isolate (source animal id): 19 | > 1
isolate (source animal id): 23 | 1 (≈ 2.8 µM)
isolate (source animal id): 26 | > 1
isolate (source animal id): 98 | > 1
isolate (source animal id): 104 | 1 (≈ 2.8 µM)
isolate (source animal id): 115 | ≤ 0.12
isolate (source animal id): 117 | > 1
isolate (source animal id): 118 | > 1
isolate (source animal id): 121 | ≤ 0.12
isolate (source animal id): 124 | > 1
isolate (source animal id): 125 | > 1
isolate (source animal id): 128 | ≤ 0.12
isolate (source animal id): 131 | > 1
isolate (source animal id): 135 | > 1
isolate (source animal id): 136 | ≤ 0.12
isolate (source animal id): 140 | > 1
isolate (source animal id): 144 | 1 (≈ 2.8 µM)
isolate (source animal id): 146 | 1 (≈ 2.8 µM)
isolate (source animal id): 150 | ≤ 0.12
isolate (source animal id): 151 | ≤ 0.12
isolate (source animal id): 153 | 1 (≈ 2.8 µM)
isolate (source animal id): 155 | > 1
isolate (source animal id): 157 | > 1
isolate (source animal id): 160 | ≤ 0.12
isolate (source animal id): 164 | ≤ 0.12
isolate (source animal id): 165 | ≤ 0.12
isolate (source animal id): 167 | ≤ 0.12
isolate (source animal id): 168 | > 1
isolate (source animal id): 169 | ≤ 0.12
isolate (source animal id): 170 | ≤ 0.12
isolate (source animal id): 171 | ≤ 0.12
isolate (source animal id): 172 | ≤ 0.12
isolate (source animal id): 173 | > 1
isolate (source animal id): 174 | ≤ 0.12
isolate (source animal id): 175 | ≤ 0.12
isolate (source animal id): 176 | ≤ 0.12
isolate (source animal id): 177 | ≤ 0.12
isolate (source animal id): 178 | ≤ 0.12
isolate (source animal id): 179 | ≤ 0.12
isolate (source animal id): 182 | ≤ 0.12
isolate (source animal id): 192 | ≤ 0.12
isolate (source animal id): 193 | ≤ 0.12
isolate (source animal id): 195 | ≤ 0.12
isolate (source animal id): 196 | ≤ 0.12
isolate (source animal id): 197 | ≤ 0.12
isolate (source animal id): 198 | > 1
isolate (source animal id): 199 | ≤ 0.12
isolate (source animal id): 200 | ≤ 0.12
isolate (source animal id): 201 | ≤ 0.12
isolate (source animal id): 203 | ≤ 0.12
isolate (source animal id): 204 | ≤ 0.12
isolate (source animal id): 205 | > 1
isolate (source animal id): 206 | ≤ 0.12
isolate (source animal id): 207 | ≤ 0.12
isolate (source animal id): 208 | ≤ 0.12
isolate (source animal id): 209 | ≤ 0.12
isolate (source animal id): 210 | > 1
isolate (source animal id): 213 | ≤ 0.12
isolate (source animal id): 216 | ≤ 0.12
isolate (source animal id): 223 | > 1
isolate (source animal id): 227 | ≤ 0.12
isolate (source animal id): 229 | > 1
isolate (source animal id): 233 | > 1
isolate (source animal id): 234 | > 1
isolate (source animal id): 237 | > 1
isolate (source animal id): 241 | > 1
isolate (source animal id): 245 | > 1
isolate (source animal id): 247 | 1 (≈ 2.8 µM)
isolate (source animal id): 250 | > 1
isolate (source animal id): 254 | > 1
isolate (source animal id): 255 | > 1
isolate (source animal id): 258 | ≤ 0.12
isolate (source animal id): 261 | > 1
isolate (source animal id): 262 | > 1
isolate (source animal id): 269 | 0.25 (≈ 0.7 µM)
isolate (source animal id): 270 | > 1
isolate (source animal id): 274 | > 1
isolate (source animal id): 275 | > 1
isolate (source animal id): 276 | > 1
isolate (source animal id): 277 | 0.25 (≈ 0.7 µM)
isolate (source animal id): 278 | > 1
isolate (source animal id): 279 | 1 (≈ 2.8 µM)
isolate (source animal id): 280 | > 1
isolate (source animal id): 284 | > 1
isolate (source animal id): 285 | > 1
isolate (source animal id): 287 | > 1
isolate (source animal id): 290 | ≤ 0.12
isolate (source animal id): 294 | ≤ 0.12
isolate (source animal id): 295 | ≤ 0.12
isolate (source animal id): 296 | > 1
isolate (source animal id): 307 | ≤ 0.12
isolate (source animal id): 310 | ≤ 0.12
isolate (source animal id): 311 | ≤ 0.12
isolate (source animal id): 312 | > 1
isolate (source animal id): 313 | > 1
isolate (source animal id): 315 | > 1
isolate (source animal id): 316 | > 1
